Measured values taken from ChEMBL document CHEMBL3779849, “Exploration of the P3 region of PEXEL peptidomimetics leads to a potent inhibitor of the Plasmodium protease, plasmepsin V” (Bioorg Med Chem, 2016).
The source made the active and inactive calls. No cut-off for these calls is given here. Non-standard residues stand in square brackets, D forms with d. Residues, ends and D or L forms follow the SMILES beside them. *: point of attachment. Phe(4-guanidino) = N=C(N)Nc1ccc(C[C@H](N)C(=O)O)cc1; Arg(NO2) = N=C(NCCC[C@H](N)C(=O)O)N[N+](=O)[O-]; Phe(4-NH2) = Nc1ccc(C[C@H](N)C(=O)O)cc1; Sta = CC(C)C[C@H](N)[C@@H](O)CC(=O)O; Arg(Me) = CNC(=N)NCCC[C@H](N)C(=O)O; Cit = NC(=O)NCCC[C@H](N)C(=O)O; NHPhenethyl = c1ccc(CCN*)cc1; Orn = NCCC[C@H](N)C(=O)O; Cbz = O=C(OCc1ccccc1)*; Ms = CS(=O)(=O)*

How the values were obtained:
[1] = Inhibition of 2.5 ng recombinant FLAG-tagged Plasmodium vivax PMV expressed in High Five insect cells assessed as fluorogenic substrate cleavage using 12 uM DABCYL-RNKRTLAQKQ-E-EDANS as fluorogenic substrate after 120 mins by fluorescence plate reader method
Plasmodium falciparum [2] = experiment: Antimalarial activity against ring-stage Plasmodium falciparum 3D7 infected in human erythrocytes assessed as parasite viability after 72 hrs by LDH assay; format: functional, organism-based; details: 3D7, 72 h
HepG2 = experiment: Cytotoxicity against human HepG2 cells assessed as cell viability after 48 hrs by Cell Titer-Glo assay; format: cell-based; details: HepG2, 48 h
[3] = target: Plasmepsin V (Plasmodium falciparum (isolate 3D7)) (UniProt Q8I6Z5); experiment: Inhibition of PMV in trophozoite stage of Plasmodium flaciparum 3D7 expressing PfEMP3-GFP infected in human erythrocytes assessed as PEXEL processing of PfEMP3 at 20 uM after 5 hrs by Western blot method; format: cell-based; details: Plasmodium falciparum 3D7
Plasmodium falciparum [4] = experiment: Antimalarial activity against Plasmodium falciparum 3D7 infected in human erythrocytes assessed as parasite viability after 72 hrs by flow cytometry; format: functional, organism-based; details: 3D7, 72 h
Plasmepsin V = Plasmepsin V (Plasmodium falciparum (isolate 3D7), UniProt Q8I6Z5); experiment: Inhibition of Plasmodium falciparum PMV assessed as fluorogenic substrate cleavage using DABCYL-RNKRTLAQKQ-E-EDANS as fluorogenic substrate after 120 mins by fluorescence plate reader method
[5] = Ratio of EC50 for ring-stage Plasmodium falciparum 3D7 to IC50 for recombinant FLAG-tagged Plasmodium vivax PMV
[6] = Inhibition of 1 ng recombinant FLAG-tagged Plasmodium vivax PMV expressed in High Five insect cells assessed as fluorogenic substrate cleavage using 7.5 uM DABCYL-RNKRTLAQKQ-E-EDANS as fluorogenic substrate after 120 mins by fluorescence plate reader method
[7] = target: Plasmepsin V (Plasmodium falciparum (isolate 3D7)) (UniProt Q8I6Z5); experiment: Inhibition of PMV in trophozoite stage of Plasmodium flaciparum 3D7 expressing PfEMP3-GFP infected in human erythrocytes assessed as PEXEL processing of PfEMP3 at 1 to 20 uM after 5 hrs by Western blot method; format: cell-based; details: Plasmodium falciparum 3D7

Plasmepsin V (Plasmodium falciparum (isolate 3D7)), sequence (Q8I6Z5 whole entry, looked up): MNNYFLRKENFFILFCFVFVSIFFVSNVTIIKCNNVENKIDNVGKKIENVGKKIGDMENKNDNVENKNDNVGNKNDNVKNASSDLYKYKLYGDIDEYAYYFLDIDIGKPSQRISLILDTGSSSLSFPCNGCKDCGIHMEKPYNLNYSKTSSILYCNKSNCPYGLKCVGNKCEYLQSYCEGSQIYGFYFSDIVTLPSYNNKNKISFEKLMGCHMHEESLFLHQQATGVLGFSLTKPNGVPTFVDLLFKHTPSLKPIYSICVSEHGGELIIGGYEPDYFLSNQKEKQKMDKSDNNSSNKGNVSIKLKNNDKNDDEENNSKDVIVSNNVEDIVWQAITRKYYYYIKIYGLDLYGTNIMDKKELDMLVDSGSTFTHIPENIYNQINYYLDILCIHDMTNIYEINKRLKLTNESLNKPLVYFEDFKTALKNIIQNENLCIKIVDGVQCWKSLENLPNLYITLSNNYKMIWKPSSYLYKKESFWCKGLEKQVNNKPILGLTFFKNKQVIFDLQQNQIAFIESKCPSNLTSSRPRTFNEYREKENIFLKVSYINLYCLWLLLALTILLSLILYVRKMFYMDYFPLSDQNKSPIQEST
Plasmepsin V, sequence (Q8I6Z5 whole entry): as the sequence (Q8I6Z5 whole entry, looked up) above

SMILES	IC50 [1] [µM]	EC50 (Plasmodium falciparum [2]) [µM]	EC50 (HepG2) [µM]	further results
CC(C)C[C@H](NC(=O)[C@@H](NC(=O)[C@H](CCCNS(C)(=O)=O)NC(=O)OCc1ccccc1)C(C)C)[C@@H](O)CC(=O)NCCc1ccccc1 (Cbz-[Orn](Ms)-Val-[Sta]-NHPhenethyl)	> 50			
CC(C)C[C@H](NC(=O)[C@@H](NC(=O)[C@H](CCCNC(=N)NC#N)NC(=O)OCc1ccccc1)C(C)C)[C@@H](O)CC(=O)NCCc1ccccc1	> 50			
CC(C)C[C@H](NC(=O)[C@@H](NC(=O)[C@H](CCCNC(=N)NO)NC(=O)OCc1ccccc1)C(C)C)[C@@H](O)CC(=O)NCCc1ccccc1	3.88	3.97	> 50	inhibition [3]: inactive
CC(C)C[C@H](NC(=O)[C@@H](NC(=O)[C@H](CCCNC(C)C)NC(=O)OCc1ccccc1)C(C)C)[C@@H](O)CC(=O)NCCc1ccccc1	> 50			
CC(C)C[C@H](NC(=O)[C@@H](NC(=O)[C@H](CCONC(=N)N)NC(=O)OCc1ccccc1)C(C)C)[C@H](O)CC(=O)NCCc1ccccc1	2.74	5.65	> 50	inhibition [3]: inactive
CCN(CC)CCCC(C)Nc1ccnc2cc(Cl)ccc12 (stereo not given) [CHLOROQUINE]		0.012		
CONC(=N)NCCC[C@H](NC(=O)OCc1ccccc1)C(=O)N[C@H](C(=O)N[C@@H](CC(C)C)[C@@H](O)CC(=O)NCCc1ccccc1)C(C)C	18	1.97	> 50	
CC(C)C[C@H](NC(=O)[C@@H](NC(=O)[C@H](Cc1ccc(N)cc1)NC(=O)OCc1ccccc1)C(C)C)[C@@H](O)CC(=O)NCCc1ccccc1 (Cbz-[Phe(4-NH2)]-Val-[Sta]-NHPhenethyl)	> 50			
CC(C)C[C@H](NC(=O)[C@@H](NC(=O)[C@H](CCCNC(=N)N)NC(=O)OCc1ccccc1)C(C)C)[C@@H](O)CC(=O)NCCc1ccccc1 (Cbz-Arg-Val-[Sta]-NHPhenethyl)	0.128	3.26	> 50	inhibition [3]: Active
CC(C)C[C@H](NC(=O)[C@@H](NC(=O)[C@H](CCCNC(=N)N[N+](=O)[O-])NC(=O)OCc1ccccc1)C(C)C)[C@@H](O)CC(=O)NCCc1ccccc1 (Cbz-[Arg(NO2)]-Val-[Sta]-NHPhenethyl)	> 50			
CC(C)C[C@H](NC(=O)[C@@H](NC(=O)[C@H](CCC(=O)NC(=N)N)NC(=O)OCc1ccccc1)C(C)C)[C@@H](O)CC(=O)NCCc1ccccc1	41.6	3.33	> 50	
CC(C)C[C@H](NC(=O)[C@@H](NC(=O)[C@H](CCONC(=N)N)NC(=O)OCc1ccccc1)C(C)C)[C@@H](O)CC(=O)NCCc1ccccc1	0.01	0.229	> 50	EC50 (Plasmodium falciparum [4]): 0.4 µM; IC50 (Plasmepsin V): 0.0008 µM; Ratio [5]: 25; IC50 [6]: 0.0016 µM; inhibition [7]: Active
CC(=O)NCCC[C@H](NC(=O)OCc1ccccc1)C(=O)N[C@H](C(=O)N[C@@H](CC(C)C)[C@@H](O)CC(=O)NCCc1ccccc1)C(C)C (Cbz-[Orn](Ac)-Val-[Sta]-NHPhenethyl)	> 50			
CC(C)C[C@H](NC(=O)[C@@H](NC(=O)[C@H](Cc1cccc(NC(=N)N)c1)NC(=O)OCc1ccccc1)C(C)C)[C@@H](O)CC(=O)NCCc1ccccc1	> 50			
CC(C)C[C@H](NC(=O)[C@@H](NC(=O)[C@H](Cc1cccc(N)c1)NC(=O)OCc1ccccc1)C(C)C)[C@@H](O)CC(=O)NCCc1ccccc1	> 50			
CC(C)C[C@H](NC(=O)[C@@H](NC(=O)[C@H](Cc1ccc(NC(=N)N)cc1)NC(=O)OCc1ccccc1)C(C)C)[C@@H](O)CC(=O)NCCc1ccccc1 (Cbz-[Phe(4-guanidino)]-Val-[Sta]-NHPhenethyl)	> 50			
CC(C)C[C@H](NC(=O)[C@@H](NC(=O)[C@H](CCCN(C)C(=N)N)NC(=O)OCc1ccccc1)C(C)C)[C@@H](O)CC(=O)NCCc1ccccc1	> 50			
CC(=N)NCCC[C@H](NC(=O)OCc1ccccc1)C(=O)N[C@H](C(=O)N[C@@H](CC(C)C)[C@@H](O)CC(=O)NCCc1ccccc1)C(C)C	40.3	21.4	> 50	inhibition [3]: inactive
CNC(=N)NCCC[C@H](NC(=O)OCc1ccccc1)C(=O)N[C@H](C(=O)N[C@@H](CC(C)C)[C@@H](O)CC(=O)NCCc1ccccc1)C(C)C (Cbz-[Arg(Me)]-Val-[Sta]-NHPhenethyl)	37.7	12.7	> 50	
CC(C)C[C@H](NC(=O)[C@@H](NC(=O)[C@H](CCCNC(N)=O)NC(=O)OCc1ccccc1)C(C)C)[C@@H](O)CC(=O)NCCc1ccccc1 (Cbz-[Cit]-Val-[Sta]-NHPhenethyl)	> 50			
